Assay results: the NIST ThermoML archive (doi:10.1007/s10765-006-0051-4)

Assay: xn = mol fraction of the nth substance listed
Settings: Gas, Oscillating disk viscometry

FC(F)C(F)(F)F [pentafluoroethane] + CCC
Settings | viscosity [mPa·s]
298.15 K, 101.2 kPa, x1 = 0.7503 | 0.01219
298.15 K, 102 kPa, x1 = 0.5011 | 0.01122
298.15 K, 197.9 kPa, x1 = 0.7503 | 0.01223
298.15 K, 198.2 kPa, x1 = 0.5011 | 0.01121
298.15 K, 294.6 kPa, x1 = 0.7503 | 0.01221
298.15 K, 302.6 kPa, x1 = 0.5011 | 0.01121
298.15 K, 391.5 kPa, x1 = 0.7503 | 0.01222
298.15 K, 396.1 kPa, x1 = 0.5011 | 0.01123
298.15 K, 492.3 kPa, x1 = 0.7503 | 0.01223
298.15 K, 499.4 kPa, x1 = 0.5011 | 0.01123
298.15 K, 589.1 kPa, x1 = 0.7503 | 0.01225
298.15 K, 591.1 kPa, x1 = 0.5011 | 0.01124
298.15 K, 687.4 kPa, x1 = 0.5011 | 0.01125
298.15 K, 689 kPa, x1 = 0.7503 | 0.01229
298.15 K, 789 kPa, x1 = 0.5011 | 0.01128
298.15 K, 803.5 kPa, x1 = 0.7503 | 0.01229
298.15 K, 913.4 kPa, x1 = 0.7503 | 0.01235
298.15 K, 928.2 kPa, x1 = 0.5011 | 0.01131
298.15 K, 1012.4 kPa, x1 = 0.7503 | 0.01248
298.15 K, 1025.1 kPa, x1 = 0.5011 | 0.01138
298.15 K, 1231.3 kPa, x1 = 0.7503 | 0.01257
323.15 K, 101.8 kPa, x1 = 0.5011 | 0.01214
323.15 K, 102.2 kPa, x1 = 0.7503 | 0.01319
323.15 K, 199 kPa, x1 = 0.7503 | 0.01317
323.15 K, 213.9 kPa, x1 = 0.5011 | 0.01213
323.15 K, 294.9 kPa, x1 = 0.7503 | 0.0132
323.15 K, 391.1 kPa, x1 = 0.7503 | 0.01321
323.15 K, 395.8 kPa, x1 = 0.5011 | 0.01215
323.15 K, 519.4 kPa, x1 = 0.7503 | 0.01322
323.15 K, 592.8 kPa, x1 = 0.5011 | 0.01219
323.15 K, 636.3 kPa, x1 = 0.7503 | 0.01325
323.15 K, 766.4 kPa, x1 = 0.7503 | 0.01326
323.15 K, 788.9 kPa, x1 = 0.5011 | 0.01225
323.15 K, 883.2 kPa, x1 = 0.7503 | 0.01334
323.15 K, 983.8 kPa, x1 = 0.5011 | 0.01228
323.15 K, 1005.1 kPa, x1 = 0.7503 | 0.01339
323.15 K, 1125.1 kPa, x1 = 0.7503 | 0.01346
323.15 K, 1181.8 kPa, x1 = 0.5011 | 0.01241
323.15 K, 1249.7 kPa, x1 = 0.7503 | 0.01351
323.15 K, 1371.2 kPa, x1 = 0.7503 | 0.01361
323.15 K, 1374.9 kPa, x1 = 0.5011 | 0.01255
323.15 K, 1486.3 kPa, x1 = 0.7503 | 0.01367
323.15 K, 1618.9 kPa, x1 = 0.7503 | 0.01379
323.15 K, 1667.7 kPa, x1 = 0.5011 | 0.01272
323.15 K, 1736.1 kPa, x1 = 0.7503 | 0.01387
323.15 K, 1862.6 kPa, x1 = 0.5011 | 0.01289
323.15 K, 1864.4 kPa, x1 = 0.7503 | 0.01404
323.15 K, 1985.7 kPa, x1 = 0.5011 | 0.013
323.15 K, 1992.1 kPa, x1 = 0.7503 | 0.0142
323.15 K, 2071.4 kPa, x1 = 0.5011 | 0.01314
323.15 K, 2101.6 kPa, x1 = 0.7503 | 0.01435
323.15 K, 2211.6 kPa, x1 = 0.7503 | 0.01452
323.15 K, 2349.2 kPa, x1 = 0.7503 | 0.01482
348.15 K, 101.1 kPa, x1 = 0.5011 | 0.01295
348.15 K, 101.4 kPa, x1 = 0.7503 | 0.01409
348.15 K, 198.4 kPa, x1 = 0.5011 | 0.01299
348.15 K, 199.7 kPa, x1 = 0.7503 | 0.01407
348.15 K, 305.5 kPa, x1 = 0.5011 | 0.01297
348.15 K, 388.2 kPa, x1 = 0.7503 | 0.01416
348.15 K, 401.6 kPa, x1 = 0.5011 | 0.01296
348.15 K, 588.6 kPa, x1 = 0.7503 | 0.01424
348.15 K, 592.5 kPa, x1 = 0.5011 | 0.01307
348.15 K, 750.8 kPa, x1 = 0.7503 | 0.01427
348.15 K, 784.8 kPa, x1 = 0.5011 | 0.01316
348.15 K, 978.4 kPa, x1 = 0.7503 | 0.01432
348.15 K, 986 kPa, x1 = 0.5011 | 0.01318
348.15 K, 1173.8 kPa, x1 = 0.7503 | 0.01443
348.15 K, 1178.4 kPa, x1 = 0.5011 | 0.01326
348.15 K, 1374.6 kPa, x1 = 0.5011 | 0.01335
348.15 K, 1374.7 kPa, x1 = 0.7503 | 0.01455
348.15 K, 1565.7 kPa, x1 = 0.7503 | 0.01468
348.15 K, 1571.2 kPa, x1 = 0.5011 | 0.0135
348.15 K, 1770.2 kPa, x1 = 0.7503 | 0.01482
348.15 K, 1772.3 kPa, x1 = 0.5011 | 0.01362
348.15 K, 1960.9 kPa, x1 = 0.5011 | 0.01374
348.15 K, 1963.9 kPa, x1 = 0.7503 | 0.01499
348.15 K, 2130.4 kPa, x1 = 0.7503 | 0.01511
348.15 K, 2139.9 kPa, x1 = 0.5011 | 0.01387
348.15 K, 2297.9 kPa, x1 = 0.5011 | 0.01404
348.15 K, 2335.5 kPa, x1 = 0.7503 | 0.01538
348.15 K, 2492.4 kPa, x1 = 0.7503 | 0.01555
348.15 K, 2501 kPa, x1 = 0.5011 | 0.0143
348.15 K, 2660.6 kPa, x1 = 0.7503 | 0.01583
348.15 K, 2695.6 kPa, x1 = 0.5011 | 0.01451
348.15 K, 2804.7 kPa, x1 = 0.7503 | 0.01604
348.15 K, 2928.8 kPa, x1 = 0.7503 | 0.01629
348.15 K, 2932.5 kPa, x1 = 0.5011 | 0.01494
348.15 K, 3079.4 kPa, x1 = 0.7503 | 0.01666
348.15 K, 3111.7 kPa, x1 = 0.5011 | 0.01524
348.15 K, 3230.6 kPa, x1 = 0.7503 | 0.01697
348.15 K, 3383.2 kPa, x1 = 0.7503 | 0.01739
373.15 K, 101 kPa, x1 = 0.7503 | 0.01505
373.15 K, 101.5 kPa, x1 = 0.5011 | 0.01376
373.15 K, 220 kPa, x1 = 0.7503 | 0.01506
373.15 K, 225.5 kPa, x1 = 0.5011 | 0.01381
373.15 K, 389.7 kPa, x1 = 0.7503 | 0.0151
373.15 K, 397.7 kPa, x1 = 0.5011 | 0.01383
373.15 K, 585.6 kPa, x1 = 0.5011 | 0.01386
373.15 K, 637.7 kPa, x1 = 0.7503 | 0.01515
373.15 K, 781.4 kPa, x1 = 0.5011 | 0.01393
373.15 K, 877.8 kPa, x1 = 0.7503 | 0.01525
373.15 K, 980.5 kPa, x1 = 0.5011 | 0.01401
373.15 K, 1141.8 kPa, x1 = 0.7503 | 0.01537
373.15 K, 1174.2 kPa, x1 = 0.5011 | 0.01407
373.15 K, 1370.5 kPa, x1 = 0.5011 | 0.01413
373.15 K, 1477.4 kPa, x1 = 0.7503 | 0.01552
373.15 K, 1560.4 kPa, x1 = 0.5011 | 0.01422
373.15 K, 1717 kPa, x1 = 0.7503 | 0.01566
373.15 K, 1753.9 kPa, x1 = 0.5011 | 0.01434
373.15 K, 1949.4 kPa, x1 = 0.5011 | 0.01447
373.15 K, 1961.1 kPa, x1 = 0.7503 | 0.01583
373.15 K, 2125.3 kPa, x1 = 0.5011 | 0.01458
373.15 K, 2185.2 kPa, x1 = 0.7503 | 0.01605
373.15 K, 2318.9 kPa, x1 = 0.5011 | 0.01469
373.15 K, 2415.9 kPa, x1 = 0.7503 | 0.01623
373.15 K, 2508.1 kPa, x1 = 0.5011 | 0.01487
373.15 K, 2631.2 kPa, x1 = 0.7503 | 0.01641
373.15 K, 2708.4 kPa, x1 = 0.5011 | 0.01508
373.15 K, 2950.3 kPa, x1 = 0.7503 | 0.01679
373.15 K, 2961.4 kPa, x1 = 0.5011 | 0.01536
373.15 K, 3209.9 kPa, x1 = 0.7503 | 0.01714
373.15 K, 3217 kPa, x1 = 0.5011 | 0.01568
373.15 K, 3421.2 kPa, x1 = 0.7503 | 0.01749
